Where a name gives a salt, the structure may show the parent alone.
melting point [°C] | Compound
49 | O=C(O)CC1CCCC1=O (stereo unspecified) [2-oxocyclopentylacetic acid]
217 | O=C(NC/1=N/C(=O)c2ncn(c2N\1)COCCO)C [N-Acetylacyclovir]
199 | Cc1ccc2c(c1)-c1c(cc3c(c1-c1ccccc1)C(=O)CC(C)(C)C3)CO2
46 | COc1ccc(Cl)cc1I [4-chloro-2-iodoanisole]
80 | N#Cc1cccc(O)c1 [3-hydroxybenzonitrile]
79 | Nc1ccc2c(c1)OCCCO2 [3,4-dihydro-2h-1,5-benzodioxepin-7-amine]
157 | O=C(O)c1cccc(Br)c1 [m-bromobenzoic acid]
-51 | O=C1CCCC1 [Cyclopentanone]
112 | Cc1cccc(C(=O)O)c1 [3-Methylbenzoic acid]
102 | COc1ccc(SCC(=O)O)cc1OC [(3,4-dimethoxyphenylthio)acetic acid]
214 | Nc1nnc(C2CC2)s1 [2-amino-5-cyclopropyl-1,3,4-thiadiazole]
-13 | COC(=O)c1ccccc1[N+](=O)[O-] [methyl 2-nitrobenzoate]
182 | CC[C@@H]1OC(=O)[C@H](C)C(=O)[C@H](C)[C@@H](O[C@@H]2O[C@H](C)C[C@H](N(C)C)[C@H]2O)[C@](C)(OC)C[C@@H](C)C(=O)[C@H](C)[C@H]2N(CCCCn3cnc(-c4cccnc4)c3)C(=O)O[C@@]12C [Telithromycin]
10 | CCC(C)c1ccccc1O (stereo unspecified) [2-sec-butylphenol]
32 | O=S1(=O)CCCO1 [1,3-propanesultone]
240 | CC12CCC(C(=CC=C3C(=O)C4(C)CCC3C4(C)C)C1=O)C2(C)C
152 | COc1cccc(C(=O)O)c1O [2-hydroxy-3-methoxybenzoic acid]
142 | C(=C\c1nn2c(COc3ccccc3)nnc2s1)/c1ccccc1

The next lines start with the compound.

Compound | melting point [°C]
COC(=O)C(=O)OC [dimethyl oxalate] | 52
Cc1ccc(N=Nc2c(O)ccc3ccccc23)c([N+](=O)[O-])c1 [1-[(4-Methyl-2-nitrophenyl)diazenyl]-2-naphthol] | 271
Cc1cc(C=O)c(C)n1-c1ccc(C(F)(F)F)cc1 [OSM-S-34] | 86
CCCCCCCCCCCCCCCCCO [Heptadecan-1-ol] | 57
N#CCC(=O)c1ccco1 [2-furoylacetonitrile] | 79
c1ccc2c(c1)ccc1c3ccccc3ccc21 [chrysene] | 254
CC(N)C(=O)O (stereo unspecified) [alanine] | 292
CCCNCCC [di-n-propylamine] | -63
CC(=O)Cl [Acetyl chloride] | -112
Cc1ccc2cc3c(ccc4ccccc43)c3c2c1CC3 [3-methylcholanthrene] | 180
CC(=O)N[C@H]1C(O)O[C@H](CO)[C@@H](O)[C@@H]1O (stereo partly drawn) [N-Acetyl-D-glucosamine] | 205
COC(=O)c1ccc([N+](=O)[O-])cc1 [methyl 4-nitrobenzoate] | 96
CCCCC=O [pentanal] | -91
C=CCCCCCCC [1-nonene] | -81
C=CCCCCCCCCCCC [1-tridecene] | -23
C[C@]12CC[C@H]3[C@@H](CCC4=CC(=O)CC[C@@]43C)[C@@H]1CC[C@@H]2O [Testosterone] | 154
CN(C)C(=O)Nc1ccc(Cl)cc1 [N-(4-chlorophenyl)-N',N'-dimethylurea] | 173
Cc1ccccc1N [o-toluidine] | -24
OB(O)c1ccc2ccccc2c1 [2-naphthaleneboronic acid] | 267
O=C(O)C1CC2=C3C=CCC=C3N=C2CN1 (stereo not drawn) [2,3,4,9-tetrahydro-1H-beta-carboline-3-carboxylic acid] | 296
CC(Br)CCCBr (stereo unspecified) [1,4-dibromopentane] | -34
CCCCCCCBr [1-bromoheptane] | -56
CCCCCCCCNCCCCCCCC [N-Octyloctan-1-amine] | 14

From the Bradley open melting point set (2014)
